Reference: publication PMC10175918 (Communications Biology, 2023)
Where two headings read alike, the source gives them in different places.

Experiments:
348 GPCRs [1] = molecular target: T1, 348 GPCRs (Homo sapiens, UniProt Q8TDS5); assay: TGFα-shedding assay-based GPCR screening with chimeric Gα subunit proteins; format: cell-based; conditions: 10µM, Favipiravir 100μM
T1 construct: expressed in transfected cells; host or cells: HEK293A

348 GPCRs [2] = molecular target: T2, 348 GPCRs (Homo sapiens, UniProt P08912); assay: as above; format: cell-based
T2 construct: expressed in transfected cells; host or cells: HEK293A
T2 sequence (P08912 1-532): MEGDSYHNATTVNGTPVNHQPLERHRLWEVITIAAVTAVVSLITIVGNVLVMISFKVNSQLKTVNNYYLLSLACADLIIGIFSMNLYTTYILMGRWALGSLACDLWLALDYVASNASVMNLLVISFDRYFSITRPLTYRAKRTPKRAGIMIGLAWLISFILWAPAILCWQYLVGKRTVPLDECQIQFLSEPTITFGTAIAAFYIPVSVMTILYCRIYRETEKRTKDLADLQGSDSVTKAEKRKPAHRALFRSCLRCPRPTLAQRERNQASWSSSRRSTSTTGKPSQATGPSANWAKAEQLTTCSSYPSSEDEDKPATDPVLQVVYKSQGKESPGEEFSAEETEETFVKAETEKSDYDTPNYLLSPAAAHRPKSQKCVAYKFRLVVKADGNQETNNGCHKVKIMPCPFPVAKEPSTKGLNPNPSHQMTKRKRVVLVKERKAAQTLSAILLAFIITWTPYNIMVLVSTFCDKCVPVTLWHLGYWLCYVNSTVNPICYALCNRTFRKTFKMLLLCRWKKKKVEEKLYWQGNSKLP

348 GPCRs [3] = molecular target: T3, 348 GPCRs (Homo sapiens, UniProt Q9GZQ6); assay: as above; format: cell-based; conditions: 10µM, Favipiravir 100μM
T3 construct: expressed in transfected cells; host or cells: HEK293A
T3 sequence (Q9GZQ6 whole entry): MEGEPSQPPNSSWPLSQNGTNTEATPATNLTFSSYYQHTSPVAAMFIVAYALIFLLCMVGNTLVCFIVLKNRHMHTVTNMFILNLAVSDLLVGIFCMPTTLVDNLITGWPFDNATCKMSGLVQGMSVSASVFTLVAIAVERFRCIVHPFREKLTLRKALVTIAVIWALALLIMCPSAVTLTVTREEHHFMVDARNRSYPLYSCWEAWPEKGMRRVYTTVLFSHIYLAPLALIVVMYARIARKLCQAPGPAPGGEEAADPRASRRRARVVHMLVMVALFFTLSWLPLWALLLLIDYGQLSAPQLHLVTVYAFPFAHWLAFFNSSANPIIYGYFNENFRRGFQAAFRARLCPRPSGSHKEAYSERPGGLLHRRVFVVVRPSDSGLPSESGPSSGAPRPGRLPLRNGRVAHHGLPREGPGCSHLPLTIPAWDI

348 GPCRs [4] = molecular target: T4, 348 GPCRs (Homo sapiens, UniProt P35348); assay: as above; format: cell-based
T4 construct: expressed in transfected cells; host or cells: HEK293A
T4 sequence (P35348 1-466): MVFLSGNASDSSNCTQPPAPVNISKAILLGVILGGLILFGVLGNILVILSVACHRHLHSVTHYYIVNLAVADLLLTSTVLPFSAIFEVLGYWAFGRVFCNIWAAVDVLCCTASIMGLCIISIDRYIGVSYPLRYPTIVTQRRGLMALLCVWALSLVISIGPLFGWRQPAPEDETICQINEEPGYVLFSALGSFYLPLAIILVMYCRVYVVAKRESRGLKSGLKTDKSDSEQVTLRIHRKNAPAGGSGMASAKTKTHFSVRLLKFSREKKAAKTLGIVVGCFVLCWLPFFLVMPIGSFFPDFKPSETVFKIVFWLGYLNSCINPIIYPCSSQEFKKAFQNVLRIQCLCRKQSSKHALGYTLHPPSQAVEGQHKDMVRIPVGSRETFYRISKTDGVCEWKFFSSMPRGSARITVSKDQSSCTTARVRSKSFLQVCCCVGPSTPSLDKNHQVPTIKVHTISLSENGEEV

348 GPCRs [5] = molecular target: T5, 348 GPCRs (Homo sapiens, UniProt Q9Y5Y3); assay: as above; format: cell-based
T5 construct: expressed in transfected cells; host or cells: HEK293A
T5 sequence (Q9Y5Y3 whole entry): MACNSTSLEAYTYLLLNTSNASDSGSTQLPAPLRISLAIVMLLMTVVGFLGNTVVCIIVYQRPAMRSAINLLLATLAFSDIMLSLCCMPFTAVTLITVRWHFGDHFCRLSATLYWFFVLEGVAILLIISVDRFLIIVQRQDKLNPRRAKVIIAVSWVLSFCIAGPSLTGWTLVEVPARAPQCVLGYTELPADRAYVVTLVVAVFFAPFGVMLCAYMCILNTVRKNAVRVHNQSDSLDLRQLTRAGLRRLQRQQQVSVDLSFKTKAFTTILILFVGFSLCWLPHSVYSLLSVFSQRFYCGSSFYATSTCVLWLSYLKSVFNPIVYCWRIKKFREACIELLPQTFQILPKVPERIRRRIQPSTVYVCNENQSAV

[6] = molecular target: T6, leukotriene B4 receptor 2 (Homo sapiens, UniProt Q9NPC1); assay: cell-based; design: species or system HEK293A; AP-TGFα shedding assay, transfected GPCR plus chimeric Gα mixture, AP release as % of TPA response; conditions: HEK293-A
T6 construct: gene LTB4R2
T6 sequence (Q9NPC1 1-358): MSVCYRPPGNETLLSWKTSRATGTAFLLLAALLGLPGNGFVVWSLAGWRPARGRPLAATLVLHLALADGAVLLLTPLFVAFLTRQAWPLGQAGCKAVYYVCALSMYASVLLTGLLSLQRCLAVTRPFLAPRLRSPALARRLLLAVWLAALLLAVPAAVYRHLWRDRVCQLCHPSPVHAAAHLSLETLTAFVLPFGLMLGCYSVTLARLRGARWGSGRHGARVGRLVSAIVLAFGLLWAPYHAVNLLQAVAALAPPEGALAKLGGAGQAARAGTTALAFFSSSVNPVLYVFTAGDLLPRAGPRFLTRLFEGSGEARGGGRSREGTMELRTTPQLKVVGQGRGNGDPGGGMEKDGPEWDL

[7] = molecular target: T7, C-C motif chemokine receptor 7 (Homo sapiens, UniProt P32248); assay: cell-based; design: species or system HEK293A; AP-TGFα shedding assay, transfected GPCR plus chimeric Gα mixture, AP release as % of TPA response; conditions: HEK293-A
T7 construct: gene CCR7
T7 sequence (P32248 1-378): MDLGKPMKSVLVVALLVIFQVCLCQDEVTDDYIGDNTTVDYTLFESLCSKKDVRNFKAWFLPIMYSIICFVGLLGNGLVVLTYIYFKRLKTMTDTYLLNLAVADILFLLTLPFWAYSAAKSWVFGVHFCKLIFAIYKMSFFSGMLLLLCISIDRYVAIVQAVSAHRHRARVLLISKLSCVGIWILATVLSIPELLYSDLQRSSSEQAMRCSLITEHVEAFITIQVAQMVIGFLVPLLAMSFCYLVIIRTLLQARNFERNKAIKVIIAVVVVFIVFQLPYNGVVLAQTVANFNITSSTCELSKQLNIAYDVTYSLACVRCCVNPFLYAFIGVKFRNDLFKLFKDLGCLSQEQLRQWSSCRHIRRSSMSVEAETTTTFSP

adenosine A2a receptor = molecular target: T8, adenosine A2a receptor (Homo sapiens, UniProt P29274); assay: cell-based; design: species or system HEK293A; AP-TGFα shedding assay, transfected GPCR plus chimeric Gα mixture, AP release as % of TPA response; conditions: HEK293-A
T8 construct: gene ADORA2A
T8 sequence (P29274 whole entry): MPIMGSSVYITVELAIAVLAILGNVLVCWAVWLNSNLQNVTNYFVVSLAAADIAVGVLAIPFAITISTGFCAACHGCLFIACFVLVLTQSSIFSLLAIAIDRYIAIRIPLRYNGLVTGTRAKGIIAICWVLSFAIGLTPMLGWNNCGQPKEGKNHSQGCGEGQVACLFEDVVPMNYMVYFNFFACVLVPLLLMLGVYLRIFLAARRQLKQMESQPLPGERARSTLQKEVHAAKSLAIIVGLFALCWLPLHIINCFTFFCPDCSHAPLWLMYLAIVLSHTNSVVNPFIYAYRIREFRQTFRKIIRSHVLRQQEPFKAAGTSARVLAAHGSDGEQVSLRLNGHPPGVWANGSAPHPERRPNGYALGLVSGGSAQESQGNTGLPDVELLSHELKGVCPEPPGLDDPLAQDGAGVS

[8] = OXER1 (oxoeicosanoid receptor 1), read-out: % GPCR activation compared to TPA
[9] = GPCR M5 (Muscarinic acetylcholine receptor M5), read-out: % GPCR activation compared to TPA
[10] = NPFFR1 (neuropeptide FF receptor 1), read-out: % GPCR activation compared to TPA
[11] = GPCR α1A (adrenoceptor alpha 1A), read-out: % GPCR activation compared to TPA
[12] = GPCR GPR45 (G Protein-Coupled Receptor 45), read-out: % GPCR activation compared to TPA
[13] = read-out: % GPCR activation of 10μM GS441524 compared to TPA
[14] = read-out: % GPCR activation compared to TPA, OXER1 (oxoeicosanoid receptor 1)
[15] = read-out: % GPCR activation compared to TPA, GPCR M5 (Muscarinic acetylcholine receptor M5)
[16] = read-out: % GPCR activation compared to TPA, NPFFR1 (neuropeptide FF receptor 1)
[17] = read-out: % GPCR activation compared to TPA, GPCR α1A (adrenoceptor alpha 1A)
[18] = read-out: % GPCR activation compared to TPA, GPCR GPR45 (G Protein-Coupled Receptor 45)
[19] = read-out: % GPCR activation of 10µM Remdesivir compared to TPA
[20] = read-out: % GPCR activation of 10μM Sofosbuvir compared to TPA
[21] = read-out: % GPCR activation of 100μM Favipiravir compared to TPA
[22] = read-out: % GPCR activation of 10µM Molnupiravir compared to TPA

T1 sequence (Q8TDS5 whole entry): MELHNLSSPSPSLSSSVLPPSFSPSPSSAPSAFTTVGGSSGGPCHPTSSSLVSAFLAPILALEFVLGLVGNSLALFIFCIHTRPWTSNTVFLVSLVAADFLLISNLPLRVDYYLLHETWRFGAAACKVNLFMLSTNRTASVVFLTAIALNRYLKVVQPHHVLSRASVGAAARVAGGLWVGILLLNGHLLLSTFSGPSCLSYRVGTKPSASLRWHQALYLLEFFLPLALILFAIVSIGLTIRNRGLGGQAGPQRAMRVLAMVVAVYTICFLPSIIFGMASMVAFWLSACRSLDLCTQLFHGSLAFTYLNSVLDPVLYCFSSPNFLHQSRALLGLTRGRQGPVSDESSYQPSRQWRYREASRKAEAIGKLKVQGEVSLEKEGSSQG

Compound | activation at 10 µM (348 GPCRs [1]; [8]) | activation at 10 µM (348 GPCRs [2]; [9]) | activation at 10 µM (348 GPCRs [3]; [10]) | activation at 10 µM (348 GPCRs [4]; [11]) | activation at 10 µM (348 GPCRs [5]; [12]) | activation at 10 µM (348 GPCRs [1]; [14]) | activation at 10 µM (348 GPCRs [2]; [15]) | activation at 10 µM (348 GPCRs [3]; [16]) | activation at 10 µM (348 GPCRs [4]; [17]) | activation at 10 µM (348 GPCRs [5]; [18]) | further results
N#C[C@@]1(c2ccc3c(N)ncnn23)O[C@H](CO)[C@@H](O)[C@H]1O [GS441524] | -0.233% | 2.9% | 1.07% | 0.0114% | -0.0256% | – | – | – | – | – | activity at 10 µM [6, 13]: -0.182%; activity at 10 µM [7, 13]: -0.998%; activity at 10 µM (adenosine A2a receptor; [13]): 1.63%
CCC(CC)COC(=O)[C@H](C)N[P@](=O)(OC[C@H]1O[C@@](C#N)(c2ccc3c(N)ncnn23)[C@H](O)[C@@H]1O)Oc1ccccc1 [remdesivir] | – | – | – | – | – | 2.06% | -0.595% | -0.49% | 0.479% | 0.315% | activity at 10 µM [6, 19]: -0.974%; activity at 10 µM (adenosine A2a receptor; [19]): 3.96%
CC(C)OC(=O)[C@H](C)N[P@](=O)(OC[C@H]1O[C@@H](n2ccc(=O)[nH]c2=O)[C@](C)(F)[C@@H]1O)Oc1ccccc1 [sofosbuvir] | – | – | – | – | – | -1.86% | -1.43% | -1.9% | 0.301% | 0.955% | activity at 10 µM [6, 20]: 1.86%; activity at 10 µM [7, 20]: -0.917%; activity at 10 µM (adenosine A2a receptor; [20]): -2.15%
NC(=O)c1nc(F)cnc1O [favipiravir, 6-fluoro-3-hydroxy-2-pyrazinecarboxamide] | 0.649% | – | -3.31% | – | – | – | – | – | – | – | activation at 100 µM (348 GPCRs [2]; GPCR M5 (Muscarinic acetylcholine receptor M5), 100μM, read-out: % GPCR activation compared to TPA): 0.695%; activation at 100 µM (348 GPCRs [4]; GPCR α1A (adrenoceptor alpha 1A), 100μM, read-out: % GPCR activation compared to TPA): 0.574%; activation at 100 µM (348 GPCRs [5]; GPCR GPR45 (G Protein-Coupled Receptor 45), 100μM, read-out: % GPCR activation compared to TPA): -0.546%; activity at 100 µM [6, 21]: -0.0275%; activity at 100 µM [7, 21]: -0.335%; activity at 100 µM (adenosine A2a receptor; [21]): 2.34%
CC(C)C(=O)OC[C@H]1O[C@@H](n2ccc(NO)nc2=O)[C@H](O)[C@@H]1O [molnupiravir] | -0.119% | -0.639% | -0.462% | 0.335% | 0.592% | – | – | – | – | – | activity at 10 µM [6, 22]: -0.206%; activity at 10 µM [7, 22]: 0.546%; activity at 10 µM (adenosine A2a receptor; [22]): -1.95%
